Measurements taken from US10927101B2, “Neopetrosides A and B, and synthesis method thereof” (INJE UNIVERSITY INDUSTRY-ACADEMIC COOPERATION FOUNDATION, priority 2016, dated 2021).
Entries after “also recorded” stand apart in the source; their conditions may differ.

Legend:
h9c2 cells [1] = assay: Mitochondrial ATP level (Mitochondrial ToxGlo assay); format: cell-based; details: h9c2 cells, 0, 3 or 10 μM NPS A for 1 hour
Protocol: Furthermore, mitochondrial ATP levels were measured using the Mitochondrial T ToxGlo™ assay (Promega, Madison, Wis., USA) according to the manufacturer's instructions.
Briefly, h9c2 cells were dispensed at 2×10^6 cells/well in a 60 mm tissue culture plate and cultured for 16 hours and treated with 0, 3, or 10 μM NPS A for 1 hour. The treated cells were all collected and resuspended by pipetting until the cells were uniformly dispersed. The resuspended h9c2 cells were dispensed at 2×10^4 cells/well in a 96-well plate and the plates were centrifuged at 200×g for 10 minutes to remove the medium. Thereafter, 50 μL of fresh medium (except for glucose, containing 10 mM galactose) was added.
The cells were incubated in a humidified incubator at 37° C. supplied with CO2 for 90 minutes. Then, the assay solution (100 μL) was added to the plate and reacted at room temperature for 30 minutes. Luminescence was measured using a luminometer (Molecular Device, Sunnyvale, Calif., USA).

GSK-3β = GSK-3β (Homo sapiens, UniProt P49841); assay: Kinase screening and IC50 determination, GSK-3β; format: biochemical
Protocol: (§1) First, kinases regulated by NPS A were screened using a set of kinases related to cardiovascular diseases and diabetes.
(§2) The activity of GSK-3 alpha, GSK-3 beta and mTOR kinase regulated by NPS A was measured to determine the half maximal inhibition dosage.

h9c2 cells [2] = assay: Oxygen consumption rate (OCR) / ECAR measurement with XF24 analyzer; format: cell-based
Protocol: For this, the basal oxygen consumption rate (OCR), respiratory related to ATP (adenosine triphosphate), proton leak, maximal capacity and mitochondrial OCR were confirmed.
First, to measure OCR, h9c2 cells were dispensed at 2×10^4 cells/well in an XF24 cell plate (Seahorse Bioscience, Billerica, Mass., USA) and cultured for 16 hours. Thereafter, cells were dispensed with various concentrations of NPS A and cultured for another one hour. After 1 hour, the medium was replaced with 500 μL of XF assay medium-modified DMEM (XF Assay Medium-modified DMEM, Seahorse Bioscience, Billerica, Mass., USA) and incubated for 1 hour in a incubator at 37° C. in absence of CO2.
OCR was measured using an XF24 analyzer (Seahorse Bioscience, Billerica, Mass., USA) and XF24 software. After OCR measurement, the XF 24 assay results were normalized to the cell number and the number of cells in each well was counted by a Luna™ automated cell counter (Logos, Annandale, Va., USA).

h9c2 cells [3] = assay: MTT toxicity assay in h9c2 myocardial cells; format: cell-based; details: 24 hours treatment
Protocol: In h9c2 cells, myocardial cells, the toxicity of NPS A extracted from Neopetrosia sp. Of Example 1 was confirmed.
The h9c2 cells were dispensed at 2×10^4 cells/well in a 96-well tissue culture plate and cultured for 16 hours. Thereafter, various concentrations of NPS A were treated and cultured for additional 24 hours.
After the culture, a quantitative colorimetric assay using MTT(3-(4,5-dimethylthiazol-2-yl)-2,5-diphenyltetrazolium bromide (Sigma-Aldrich, St. Louis, Mo., USA) was performed to confirm the survival rate of the cells.
The degree of reduction of MTT to intracellular formazan was confirmed by measuring the optical density at 570 nm using a microplate reader (Molecular device, Sunnyvale, Calif., USA).

[4] = tested on: ischemic reperfusion heart model; assay: Ischemic reperfusion heart model (Langendorff perfused rat heart); format: in vivo, SD rats
Protocol: 8-week-old male SD rats (200-250 g) were anesthetized by intraperitoneal injection of sodium pentobarbital (100 mg/kg). The chest cavity was exposed and a glass cannula was inserted into the aorta. The heart was quickly cut into thoracotomy, perfused with a normal Tyrode's solution in a Langendorff system and equilibrated with 95% O2 and 5% CO2 at 37° C. for 10 min to remove all blood. The heart of the rat was extirpated and the experiment was performed using a non-circulating system. First, ischemic reperfusion (I/R) model and drug treatment group (NPS A treatment; NPS A 10 μM treatment after ischemia reperfusion) were performed and hypoxic solution was flowed for 30 minutes. After 30 minutes, the normal tyrode solution and NPS A were treated together to restore cardiac function and confirm changes in electrocardiogram. […] After global ischemia (initiating reperfusion), 10 μM of NPS A was administered for 30 minutes.

[5] = tested on: candidate kinases of the first type (cardiovascular diseases); assay: Kinase screening, set of kinases related to cardiovascular diseases; format: biochemical
Source text: as §1

[6] = Solubility of NPS A in water and organic solvents; format: physicochemical
[7] = target: mTOR (mammalian target of rapamycin) (Homo sapiens, UniProt P42345); assay: Kinase screening and dose-dependence, mTOR; format: biochemical
Protocol: as §1, §2

[8] = target: GSK-3α (Glycogen synthase kinase-3α) (Homo sapiens, UniProt P49840); assay: Kinase screening and IC50 determination, GSK-3α; format: biochemical
Protocol: as §1, §2

[9] = tested on: mitochondria extracted from the heart of rats; assay: Oxidative phosphorylation in mitochondria extracted from NPS A-treated rat heart; details: mitochondria of I/R rat heart, NPS A treatment
h9c2 cells [10] = assay: Glycolysis activity, capacity and reserve with XF24 analyzer; format: cell-based; details: 10 μM NPS A compared to 20 μM or 30 μM, 1 hour
Protocol: After treating h9c2 cells with NPS A, the glycolysis activity, the glycolysis capacity and the glycolysis reserve were confirmed using an XF24 analyzer.
h9c2 cells were treated sequentially with 10 mM glucose (G), 1 μM oligomycin (O) and 10 mM 2-dioxyglucose (2DG), treated with NPS A for 1 hour and then measured with an XF24 analyzer.

[11] = kinase screening, kinases related with diabetes

Sequence of GSK-3β (P49841 whole entry, species assumed): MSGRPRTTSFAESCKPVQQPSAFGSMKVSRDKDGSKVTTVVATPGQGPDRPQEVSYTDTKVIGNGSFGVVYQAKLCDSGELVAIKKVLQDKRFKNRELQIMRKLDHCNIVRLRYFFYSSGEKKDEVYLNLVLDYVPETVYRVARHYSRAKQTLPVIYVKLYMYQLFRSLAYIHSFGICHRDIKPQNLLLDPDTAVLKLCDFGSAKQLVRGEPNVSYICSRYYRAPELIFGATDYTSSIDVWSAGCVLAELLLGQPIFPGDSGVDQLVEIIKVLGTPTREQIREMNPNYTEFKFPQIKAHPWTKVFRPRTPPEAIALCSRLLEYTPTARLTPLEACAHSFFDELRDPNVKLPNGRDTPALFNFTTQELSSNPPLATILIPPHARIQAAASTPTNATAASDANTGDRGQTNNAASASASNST
Sequence of GSK-3α (Glycogen synthase kinase-3α) (P49840 whole entry, species assumed): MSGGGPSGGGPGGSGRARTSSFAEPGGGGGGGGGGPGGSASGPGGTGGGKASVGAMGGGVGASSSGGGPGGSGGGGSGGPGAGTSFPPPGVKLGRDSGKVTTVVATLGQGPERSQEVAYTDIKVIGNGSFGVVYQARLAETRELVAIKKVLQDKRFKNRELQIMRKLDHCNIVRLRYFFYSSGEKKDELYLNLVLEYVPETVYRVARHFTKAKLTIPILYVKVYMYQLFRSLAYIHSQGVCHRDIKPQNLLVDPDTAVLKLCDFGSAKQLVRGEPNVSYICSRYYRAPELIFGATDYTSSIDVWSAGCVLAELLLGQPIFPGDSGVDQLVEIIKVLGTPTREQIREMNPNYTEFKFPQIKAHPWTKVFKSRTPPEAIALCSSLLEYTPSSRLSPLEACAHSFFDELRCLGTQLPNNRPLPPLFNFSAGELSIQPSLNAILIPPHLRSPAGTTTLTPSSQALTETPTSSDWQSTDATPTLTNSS

O=C([O-])c1ccc[n+](C2OC(COC(=O)c3ccc(O)cc3)C(O)C2O)c1 (centres unmarked) [NPS A, Neopetroside A]
ATP synthesis (h9c2 cells [1]): stimulates; also recorded: up-regulated
intracellular ATP levels (h9c2 cells [1]): increases
IC50 (GSK-3β): 124 µM
kinase screening result, GSK-3β (GSK-3β; [11]): inhibited
OCR/ECAR ratio (h9c2 cells [2]): increased
basal ECAR (extracellular acidification rate) (h9c2 cells [2]): increased
basal OCR (h9c2 cells [2]; 1 hour treatment): up-regulated; also recorded: increased
mitochondrial OCR (h9c2 cells [2]; 1 hour treatment): up-regulated
oxidative phosphorylation (h9c2 cells [2]; 1 hour treatment): up-regulated
respiration associated with ATP (h9c2 cells [2]; 1 hour treatment): up-regulated
concentration up to which not toxic to the myocardial cells (MTT survival) (h9c2 cells [3]): ≤ 300 µM
cardiac rhythm ([4]; 10 μM NPS A during reperfusion): recovered
size of the heart infarction ([4]; 10 μM NPS A during reperfusion): significantly reduced
left ventricular pressure (LV pressure) ([4]; 10 μM NPS A for 30 minutes during reperfusion after 30 minutes global ischemia): effectively restored
regulation of candidate kinases of the first type [5]: did not regulate most
solubility in other organic solvents ([6]; other organic solvents): not well soluble
solubility in pyridine and methanol ([6]; pyridine and methanol): dissolves in pyridine and methanol
solubility in water ([6]; water): dissolves in water
mTOR activity according to doses of NPS A ([7]; different doses of NPS A): no change
kinase screening result, mTOR [7, 11]: inhibited
IC50 [8]: 140 µM
kinase screening result, GSK-3α [8, 11]: inhibited
respiratory control ratio (RCP) [9]: recovered
three-stage respiratory depression in mitochondria (OCR) [9]: significantly protected
glycolysis activity (h9c2 cells [10]): greatest
glycolysis capacity (h9c2 cells [10]): greatest
